A short description of assay [1]: Compound was tested for the inhibition of Fucosyltransferase 4 alpha 1,3 at 8.5 uM GDP-fucose.
Assay [2] is described as follows: Compound was tested for the inhibition of Fucosyltransferase 4 alpha 1,3 at 2 uM GDP-fucose.

Broadly, the IC50 is the concentration that inhibits the measured activity by half. Low readings indicate inhibition by little substance, high ones a need for much substance.

Molecule `C[C@@H]1NC[C@@H](O)[C@H](O)[C@@H]1O` [DEOXYFUCONOJIRIMYCIN] came in with a half-maximal inhibitory concentration (IC50) in assay [1] of 3500 µM. This counts as millimolar.
As to `C[C@H]1[C@@H](O)[C@H](O)[C@H](O)CN1Cc1ccccc1O[C@@H]1O[C@@H](CO)[C@H](O)[C@H](O)[C@@H]1O`, the IC50 in assay [2] came out at 50 µM; in assay [1], 81 µM.
Turning to `Nc1nc2c(ncn2[C@@H]2O[C@H](COP(=O)(O)OP(=O)(O)O)[C@@H](O)[C@H]2O)c(=O)[nH]1`, the IC50 in assay [1] is 5 µM. That is a single-digit micromolar value.
Same read-out and setting: with `C[C@H]1[C@@H](O)[C@H](O)[C@H](O)CN1CCCO[C@@H]1O[C@@H](CO)[C@H](O)[C@H](O)[C@@H]1O` the figure was above 500 µM.
Take `C[C@H]1[C@@H](O)[C@H](O)[C@H](O)CN1CCCCO[C@@H]1O[C@@H](CO)[C@H](O)[C@H](O)[C@@H]1O`: the IC50 in assay [1] is 233 µM.
